Data as given in PMC5152890 (PLoS ONE, 2016).
Read-outs that look alike come from different tables or passages of the source.

Experiments:
[1] = target: T1, hVEGFR1-ECD (Homo sapiens, UniProt P17948); type: binding; conditions: for % displacement at 30 μM: 1% DMSO; for IC50: read-out: IC50 [95% CI]; for effect on the competition assay (in words): divalent cations, VEGF-A/hVEGFR1 interaction
T1 construct: purchased R&D Systems, Abingdon, UK

[2] = target: T2, hVEGFR1d2 (Homo sapiens, UniProt P17948); test: analytical size exclusion chromatography of hVEGFR1d2 dimerization; conditions: 1 mM CuSO4, 160 μM hVEGFR1d2, gel filtration
T2 construct: The human hVEGFR1d2 protein (residues 132–226) was expressed and purified; made in house; host or cells: E. coli Rosetta-gami(DE3)pLysS is stated only for the 15N-labelled batch
Protocol: Because the competition assay results indicated a higher effect of Cu^2+ ions compared to Zn^2+ or Co^2, the Cu^2+-induced dimerization of hVEGFR1d2 in solution was verified using analytical gel-filtration chromatography. In the presence of 1 mM EDTA a single hVEGFR1d2 peak was observed, which represents the monomer (apparent MW = 14.9 kDa). In the presence of 1 mM CuSO4, two peaks were eluted corresponding respectively to the hVEGFR1d2 dimer (78% of absorption, apparent MW = 27.9 kDa) and monomer (apparent MW = 15.8 kDa). SDS-PAGE analysis confirmed that both peaks consist of hVEGFR1d2 (Fig 7).
The Cu^2+-induced dimerization of hVEGFR1d2 was confirmed using a precalibrated analytical gel-filtration column (Superdex™75 HR 10/300 Amersham GE Healthcare, Little Chalfont, UK). Prior to loading, samples were prepared by incubating 160 μM hVEGFR1d2 in a buffer containing 25 mM Tris-HCl, pH 8.1, 250 mM NaCl, and either 1 mM EDTA or 1mM CuSO4 for 30 min at 18°C. Subsequently, 50 μL of this mixture was loaded at 0.5 mL/min on the column that was equilibrated with the identical respective buffers. Elution peaks were integrated, and the corresponding fractions were analyzed on SDS-PAGE.

[3] = biotinylated VEGF-A165 displaced by 30 μM of metal on whole ECD (d1-d7) of VEGFR1
[4] = concentration displacing 50% of biotinylated VEGF-A165 binding on VEGFR1 (ECD)

T1 sequence (P17948 27-687 isoform P17948-2): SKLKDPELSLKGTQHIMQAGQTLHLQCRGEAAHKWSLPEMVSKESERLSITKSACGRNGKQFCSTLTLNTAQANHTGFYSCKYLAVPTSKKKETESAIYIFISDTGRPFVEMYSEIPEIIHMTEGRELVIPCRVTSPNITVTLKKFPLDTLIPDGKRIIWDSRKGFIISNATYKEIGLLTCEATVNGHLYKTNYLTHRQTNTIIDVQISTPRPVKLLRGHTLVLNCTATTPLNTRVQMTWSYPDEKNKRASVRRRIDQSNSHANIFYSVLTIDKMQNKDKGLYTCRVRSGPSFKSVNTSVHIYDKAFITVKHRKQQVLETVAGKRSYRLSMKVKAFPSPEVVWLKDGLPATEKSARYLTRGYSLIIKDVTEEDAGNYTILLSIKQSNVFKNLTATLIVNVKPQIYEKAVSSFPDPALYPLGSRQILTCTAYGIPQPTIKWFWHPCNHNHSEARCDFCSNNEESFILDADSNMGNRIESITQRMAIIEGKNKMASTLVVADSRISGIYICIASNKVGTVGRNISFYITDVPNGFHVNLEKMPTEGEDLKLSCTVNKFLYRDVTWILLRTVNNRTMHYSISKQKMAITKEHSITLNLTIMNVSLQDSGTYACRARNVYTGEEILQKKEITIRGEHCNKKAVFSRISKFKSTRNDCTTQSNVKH
T2 sequence (P17948 132-226): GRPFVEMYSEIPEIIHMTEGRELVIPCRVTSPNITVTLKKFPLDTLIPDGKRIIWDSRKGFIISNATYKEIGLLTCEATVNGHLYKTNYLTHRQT

| SMILES | % displacement at 30 μM [1, 3] [%] | IC50 [1, 4] [nM] | other results |
| --- | --- | --- | --- |
| [Cl][Cd][Cl] [CdCl2] | 38 ± 4 | 48000 |  |
| [Cd+2] [Cd^2+] |  |  | effect on the competition assay (in words) [1]: little |
| [Cl-].[Cl-].[Co+2] [CoCl2] |  |  | % displacement at 30 μM [1]: 40 ± 2%; IC50 [1]: 47100 nM |
| O=S(=O)([O-])[O-].[Co+2] [CoSO4] | 44 ± 1 |  |  |
| [Co+2] [Co^2+] |  |  | effect on the competition assay (in words) [1]: little |
| CC(=O)[O-].CC(=O)[O-].[Cu+2] [Cu(OAc)2] | 69 ± 2 | 1320 |  |
| [Cl][Cu][Cl] [CuCl2] | 87 ± 2 | 1260 |  |
| O=S(=O)([O-])[O-].[Cu+2] [CuSO4] | 83 ± 8 | 970 | hVEGFR1d2 dimer peak, % of absorption [2]: 78% |
| [Cu+2] [Cu^2+] |  |  | disruption of the VEGF-A/hVEGFR1-ECD interaction in the presence of a metal chelator ([1]; with EDTA, 1 eq.): unable to disrupt the VEGF-A/hVEGFR1-ECD interaction |
| O=S(=O)([O-])[O-].[Fe+2] [FeSO4] | 13 ± 5 |  |  |
| [Fe+2] [Fe^2+] |  |  | effect on the competition assay (in words) [1]: no effect |
| O=S(=O)([O-])[O-].[Mn+2] [MnSO4] | 0 |  |  |
| [Mn+2] [Mn^2+] |  |  | effect on the competition assay (in words) [1]: no effect |
| O=S(=O)([O-])[O-].[Na+].[Na+] [Na2SO4] | 0 |  |  |
| O=S(=O)([O-])[O-].[Ni+2] [NiSO4] | 75 ± 1 | 3540 |  |
| [Ni+2] [Ni^2+] |  |  | IC50 [95% CI] [1, 4]: within the micromolar range |
| CC(=O)[O-].CC(=O)[O-].[Pd+2] [Pd(OAc)2] | 97 ± 3 | 360 |  |
| [Cl][Pd][Cl] [PdCl2] | 93 ± 1 | 250 |  |
| O=S(=O)([O-])[O-].[Zn+2] [ZnSO4] | 61 ± 2 | 5940 |  |
| [Zn+2] [Zn^2+] |  |  | IC50 [95% CI] [1, 4]: within the micromolar range |
